Data from patent US7078400B2, “20-HETE synthase inhibitor” (Taisho Pharmaceutical Co., Ltd., priority 1999, dated 2006).

Columns and labels:
[1] = system: 20-HETE synthase originated from rat kidney microsome; experiment: Inhibitory effect of 20-HETE synthase originated from rat kidney microsome; assay type: biochemical; settings: for Inhibition rate (1 μM): 20-HETE production without compound set to 100%; for IC50: concentration at which production of 20-HETE was inhibited to 50%
Experimental: Experimental Example [Inhibitory effect of 20-HETE synthase originated from rat kidney microsome]
Regarding the compounds listed in Table 1, their inhibitory activity to production of 20-HETE was examined.
The subject compound for this examination was added to a buffer comprising 50 mM of 3-morpholinopropane sulfonic acid (pH7.4), 5 mM of magnesium chloride and 1 mM of ethylenediaminetetraacetic acid (EDTA) disodium salt.
After that, the rat kidney microsome (microsome fraction prepared from the kidney of a spontaneous hypertension rat (male, 6 weeks of age)) as an enzyme, [5,6,8,9,11,12,14,15] tritium-arachidonic acid (supplied by Amasham) as a substrate, and NADPH (supplied by Sigma) as a coenzyme were added and reacted for 1.5 hours at 37° C.
After the reaction, formic acid was added to stop the reaction, and then acetonitrile (final concentration of 50%) was added and left for 1.5 hours at room temperature.
The activity of 20-HETE synthase was measured by using a high performance liquid chromatograph having a detector for radioactive substances (supplied by Gilson), and equipped with a C18 reversed phase column (Biocyl C18, supplied by Bio-rad).

[2] = 1 μM of the subject compound added, rat kidney microsome
[3] = 1 μM of subject compound, rat kidney microsome

CC(C)(C)c1ccc(N/C=N/O)cc1 [Comp. 2, N-(4-tert-butylphenyl)-N′-hydroxy-formamidine]
melting point: 113.5 to 114.5 °C

CCCCc1ccccc1N/C=N/O [Comp. 3]
melting point: 84.5 to 85.5 °C
Inhibition rate (1 μM) [1, 2]: 98.9

CCC(C)c1ccc(N/C=N/O)cc1 (stereo not drawn) [Comp. 4]
melting point: 101 to 102.5 °C

O/N=C/Nc1ccc(C2CCCCC2)cc1 [Comp. 5]
melting point: 153 to 154 °C
Inhibition rate (1 μM) [1, 2]: 99.9
IC50 ([1]; rat kidney microsome): 3.8 nM

COc1ccc(C(C)(C)C)cc1N/C=N/O [Comp. 6]
melting point: 119.5 to 120.5 °C
Inhibition rate (1 μM) [1, 2]: 99.9

CCCCCc1ccc(N/C=N/O)cc1 [Comp. 7]
melting point: 122.5 to 124 °C
Inhibition rate (1 μM) [1, 2]: 110.5
IC50 ([1]; rat kidney microsome): 12.1 nM

CC(C)(C)c1ccccc1N/C=N/O.Cl [Comp. 8]
melting point: 141 to 142 °C
Inhibition rate (1 μM) [1, 2]: 99.9

CCCCCCc1ccc(N/C=N/O)cc1 [Comp. 9]
melting point: 108 to 110 °C

Cc1ccc(N/C=N/O)cc1 [Comp. 10]
melting point: 143.5 to 144.5 °C

Cc1ccc(N/C=N/O)c(Cl)c1 [Comp. 11]
melting point: 151 to 152.5 °C
Inhibition rate (1 μM) [1, 2]: 92.7
IC50 ([1]; rat kidney microsome): 297 nM

O/N=C/Nc1ccc(F)cc1 [Comp. 12]
melting point: 139.5 to 140.5 °C
Inhibition rate (1 μM) [1, 2]: 77.1
IC50 ([1]; rat kidney microsome): 1420 nM

Cc1ccc(N/C=N/O)cc1C [Comp. 13]
melting point: 116 to 118 °C
Inhibition rate (1 μM) [1, 2]: 95.9
IC50 ([1]; rat kidney microsome): 118 nM

Cc1ccc(Cl)c(N/C=N/O)c1 [Comp. 14]
melting point: 151 to 153 °C
Inhibition rate (1 μM) [1, 2]: 91.7
IC50 ([1]; rat kidney microsome): 163 nM

O/N=C/Nc1ccc(Cl)cc1 [Comp. 15]
melting point: 155.5 to 156 °C
Inhibition rate (1 μM) [1, 2]: 92.9
IC50 ([1]; rat kidney microsome): 288 nM

CCc1ccc(N/C=N/O)cc1 [Comp. 16]
melting point: 141 to 142 °C

COc1ccc(C)cc1N/C=N/O [Comp. 17]
melting point: 136.5 to 139 °C
Inhibition rate (1 μM) [1, 2]: 85.3

COc1ccc(N/C=N/O)cc1 [Comp. 18]
melting point: 139 to 140 °C
Inhibition rate (1 μM) [1, 2]: 94.6
IC50 ([1]; rat kidney microsome): 45.2 nM

COc1ccc(N/C=N/O)c(C)c1 [Comp. 19]
melting point: 144 to 145 °C
Inhibition rate (1 μM) [1, 2]: 88.0
IC50 ([1]; rat kidney microsome): 338 nM

CCOc1ccc(N/C=N/O)cc1 [Comp. 20]
melting point: 149 to 150 °C
Inhibition rate (1 μM) [1, 2]: 97.5
IC50 ([1]; rat kidney microsome): 228 nM

CCc1cccc(N/C=N/O)c1 [Comp. 21]
melting point: 115.5 to 116.5 °C
Inhibition rate (1 μM) [1, 2]: 81.1

O/N=C/Nc1cccc(Cl)c1 [Comp. 23]
melting point: 110 to 111.5 °C
Inhibition rate (1 μM) [1, 2]: 82.8
IC50 ([1]; rat kidney microsome): 476 nM

O/N=C/Nc1ccc(Cl)c(Cl)c1 [Comp. 24]
melting point: 119 to 120.5 °C
Inhibition rate (1 μM) [1, 2]: 89.2
IC50 ([1]; rat kidney microsome): 520 nM

CC(C)c1ccc(N/C=N/O)cc1 [Comp. 30]
melting point: 143 to 143.5 °C

COC(=O)c1ccc(N/C=N/O)cc1 [Comp. 37]
melting point: 167 to 167.5 °C

CCCc1cc(Br)c(N/C=N/O)c(Br)c1 [Comp. 48]
melting point: 155 to 156 °C

COc1cccc(C)c1N/C=N/O [Comp. 52]
melting point: 145 to 146 °C

CCc1cc(Br)cc(CC)c1N/C=N/O [Comp. 53]
melting point: 159 to 160 °C

COc1cc(N/C=N/O)cc(OC)c1OC [Comp. 103]
melting point: 143 to 146 °C

CCOC(=O)c1cccc(N/C=N/O)c1 [Comp. 127]
melting point: 137.5 to 138.5 °C

COC(=O)c1cc(N/C=N/O)cc(C(=O)OC)c1 [Comp. 129]
melting point: 183 to 183.5 °C

CCCCc1ccc(C)c(N/C=N/O)c1 [Comp. 133]
melting point: 116.5 to 117.5 °C

O/N=C/Nc1ccc2c(c1)OCO2 [Comp. 230]
melting point: 165 to 165.5 °C

O/N=C/Nc1ccc(Cc2ccccc2)cc1 [Comp. 233]
melting point: 118 to 119.5 °C

NS(=O)(=O)c1ccccc1N/C=N/O [Comp. 236, N-(2-aminosulfonylphenyl)-N′-hydroxyformamidine]
melting point: 130.5 to 131.5 °C

O/N=C/Nc1ccc(N2CCOCC2)c(Cl)c1 [Comp. 302]
melting point: 177.5 to 178 °C

CCCOc1ccc(N/C=N/O)cc1 [Comp. 317]
melting point: 132 to 133 °C

O/N=C/Nc1ccc(OCC2CCCCCC2)cc1 [Comp. 370]
Inhibition rate (1 μM) [1, 3]: 113.7

Cc1ccc(CCOc2ccc(N/C=N/O)cc2)cc1 [Comp. 372]
Inhibition rate (1 μM) [1, 3]: 100.5

COc1ccc(CCCOc2ccc(N/C=N/O)cc2)cc1OC [Comp. 374]
Inhibition rate (1 μM) [1, 3]: 119.1

COc1ccc(CCCOc2ccc(N/C=N/O)cc2)cc1 [Comp. 375]
Inhibition rate (1 μM) [1, 3]: 117.7

O/N=C/Nc1ccc(OCCc2cccc(Br)c2)cc1 [Comp. 376]
Inhibition rate (1 μM) [1, 3]: 114.9

CCOC(=O)CCCCCOc1ccc(N/C=N/O)cc1 [Comp. 378]
Inhibition rate (1 μM) [1, 3]: 102.4

COc1ccccc1CCOc1ccc(N/C=N/O)cc1 [Comp. 379]
Inhibition rate (1 μM) [1, 3]: 105.4

CC(C)=CCCC(C)CCOc1ccc(N/C=N/O)cc1 (stereo not drawn) [Comp. 380]
Inhibition rate (1 μM) [1, 3]: 118.9

O/N=C/Nc1ccc(OCCCCc2ccccc2)cc1 [Comp. 381]
Inhibition rate (1 μM) [1, 3]: 116.0

Cc1ccc(COc2ccc(N/C=N/O)cc2)cc1 [Comp. 383]
Inhibition rate (1 μM) [1, 3]: 116.2

O/N=C/Nc1ccc(OCc2ccccc2CCc2ccccc2)cc1 [Comp. 386]
Inhibition rate (1 μM) [1, 3]: 105.2

O/N=C/Nc1ccc(OCc2cccc(Oc3ccccc3)c2)cc1 [Comp. 388]
Inhibition rate (1 μM) [1, 3]: 96.2

COC(=O)c1ccc(COc2ccc(N/C=N/O)cc2)cc1 [Comp. 396]
Inhibition rate (1 μM) [1, 3]: 102.7

O/N=C/Nc1ccc(OCc2ccc(-c3ccccc3)cc2)cc1 [Comp. 397]
Inhibition rate (1 μM) [1, 3]: 99.3

CCN(CC)CCOCCOc1ccc(N/C=N/O)cc1 [Comp. 398]
Inhibition rate (1 μM) ([1]; 1 μM of the subject compound): 95.2
IC50 [1]: 2.4 nM

CCN(CCOc1ccc(N/C=N/O)cc1)c1cccc(C)c1 [Comp. 405]
Inhibition rate (1 μM) ([1]; 1 μM of the subject compound): 116.0

Cn1c(=O)c2c(ncn2CCOc2ccc(N/C=N/O)cc2)n(C)c1=O [Comp. 406]
Inhibition rate (1 μM) ([1]; 1 μM of the subject compound): 73.7

O/N=C/Nc1ccc(OCCOc2ccccc2)cc1 [Comp. 418]
Inhibition rate (1 μM) ([1]; 1 μM of the subject compound): 120.4

O/N=C/Nc1ccc(OCCSc2ccccc2)cc1 [Comp. 419]
Inhibition rate (1 μM) ([1]; 1 μM of the subject compound): 116.1

OCCCCCOc1ccc(N/C=N/O)cc1 [Comp. 427]
IC50 [1]: 2.6 nM

O/N=C/Nc1ccc(OCCCN2CCCC2)cc1 [Comp. 429]
IC50 [1]: 79.1 nM

O/N=C/Nc1ccc(SCc2ccc(Cl)cc2)cc1 [Comp. 437]
Inhibition rate (1 μM) ([1]; 1 μM of the subject compound): 96.1

O/N=C/Nc1ccc(SC2CCCCC2)cc1 [Comp. 438]
Inhibition rate (1 μM) ([1]; 1 μM of the subject compound): 87.9

CCOC(=O)CSc1ccc(N/C=N/O)cc1 [Comp. 440]
Inhibition rate (1 μM) ([1]; 1 μM of the subject compound): 102.8

CCCCSc1ccc(N/C=N/O)cc1 [Comp. 442]
Inhibition rate (1 μM) ([1]; 1 μM of the subject compound): 95.7

CC(C)CCSc1ccc(N/C=N/O)cc1 [Comp. 443]
Inhibition rate (1 μM) ([1]; 1 μM of the subject compound): 103.0

COC(=O)CSc1ccc(N/C=N/O)cc1 [Comp. 446]
Inhibition rate (1 μM) ([1]; 1 μM of the subject compound): 95.9

O/N=C/Nc1ccc(SC2CCCC2)cc1 [Comp. 447]
Inhibition rate (1 μM) ([1]; 1 μM of the subject compound): 95.9

CCCCCSc1ccc(N/C=N/O)cc1 [Comp. 450]
Inhibition rate (1 μM) ([1]; 1 μM of the subject compound): 105.9

CCCCCCSc1ccc(N/C=N/O)cc1 [Comp. 451]
Inhibition rate (1 μM) ([1]; 1 μM of the subject compound): 97.6

CCCCCCCSc1ccc(N/C=N/O)cc1 [Comp. 452]
Inhibition rate (1 μM) ([1]; 1 μM of the subject compound): 112.3

CCCCCCCCCSc1ccc(N/C=N/O)cc1 [Comp. 453]
Inhibition rate (1 μM) ([1]; 1 μM of the subject compound): 95.3

CCN(CC)CCSc1ccc(N/C=N/O)cc1 [Comp. 454]
Inhibition rate (1 μM) ([1]; 1 μM of the subject compound): 105.8

COC(=O)CCSc1ccc(N/C=N/O)cc1 [Comp. 455]
Inhibition rate (1 μM) ([1]; 1 μM of the subject compound): 105.6

CCOC(=O)CCSc1ccc(N/C=N/O)cc1 [Comp. 457]
Inhibition rate (1 μM) ([1]; 1 μM of the subject compound): 112.6

O/N=C/Nc1ccc(SCCc2ccccc2)cc1 [Comp. 458]
Inhibition rate (1 μM) ([1]; 1 μM of the subject compound): 116.0
